This experiment concerns patients suffering major depressive disorder. Briefly: open-label desvenlafaxine treatment of MDD outpatients, HDRS assessed every two weeks. The experiment is classed as in vivo, human. The procedure: A […] clinical trial was performed to examine the clinical validity of a five gene, combinatorial, pharmacogenetic-based antidepressant dosing support tool for desvenlafaxine dosing. Participants were self-identified Caucasian outpatients aged 18 years and older with a principal DSM-5 diagnosis of MDD (semi-structured psychiatrist assessment) and a 17-item Hamilton Depression Rating Scale (HDRS) score greater than or equal to 18. Participants with other active psychiatric diagnoses were excluded, specifically those suffering with adjustment disorder with depressed mood, persistent depressive disorder, and subjects with a principal clinical diagnosis of a personality disorder. Additional exclusion criteria included pregnancy or breastfeeding, hepatic or renal impairments, co-prescription of known UGT1A1 or ABCB1 inducers/inhibitors (e.g. St John's Wort, valproic acid), regular grapefruit juice consumption, and current smoking which may influence appropriate dosing. A total of 131 individuals were screened for eligibility criteria. […] All participants received desvenlafaxine in an open-label manner during the 10-week study period. At baseline, age, sex, duration of the current depressive episode, and number of depressive episodes was recorded. […] Symptom severity was assessed at baseline and every two-weeks thereafter during the study period with the HDRS. […]

Data on one compound can be found in US20180105876A1, “MEDICATION DOSING REPORT” (BAYCREST TECHNOLOGY PTY LTD, priority 2015, published 2018).

As for `CN(C)CC(c1ccc(O)cc1)C1(O)CCCCC1` (centres unmarked) [desvenlafaxine], under “after 10 weeks of desvenlafaxine treatment, 119 MDD participants, dose adjusted every two weeks”, the “participants achieved symptom remission (HDRS score of 7 or less by week 10)” value amounted to 80%. Also, the “greater than 50% reduction in HDRS from baseline” value (among the 24 participants who did not achieve symptom remission by week 10) is 42%.
